This passage reports Ki results from US9777001B2 (priority 2014, dated 2017).

Structures can show the parent of a compound that is named as a salt.

Chain of human plasma kallikrein (P03952 391-638 limits assumed): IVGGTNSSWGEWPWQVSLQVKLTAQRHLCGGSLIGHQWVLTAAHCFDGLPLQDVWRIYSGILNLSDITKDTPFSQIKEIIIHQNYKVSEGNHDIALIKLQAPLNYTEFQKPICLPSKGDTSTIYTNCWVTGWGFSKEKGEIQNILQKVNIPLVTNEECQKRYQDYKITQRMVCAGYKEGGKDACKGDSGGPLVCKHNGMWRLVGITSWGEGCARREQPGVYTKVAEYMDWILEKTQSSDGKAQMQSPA
Chain of human plasma kallikrein (P03952 20-390 partner limits assumed): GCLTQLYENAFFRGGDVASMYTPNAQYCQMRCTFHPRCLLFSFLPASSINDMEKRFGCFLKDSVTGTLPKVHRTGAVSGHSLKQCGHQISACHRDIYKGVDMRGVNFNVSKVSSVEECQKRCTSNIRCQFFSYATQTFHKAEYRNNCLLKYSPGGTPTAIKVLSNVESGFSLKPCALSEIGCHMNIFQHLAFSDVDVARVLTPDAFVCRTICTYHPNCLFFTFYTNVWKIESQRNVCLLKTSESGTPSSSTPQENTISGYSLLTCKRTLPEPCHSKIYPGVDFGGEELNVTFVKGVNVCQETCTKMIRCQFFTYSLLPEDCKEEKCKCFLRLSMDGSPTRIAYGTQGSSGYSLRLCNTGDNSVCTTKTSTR

The experiment has as its target human plasma kallikrein (Homo sapiens, UniProt P03952). Description: biochemical. Particulars: purified human plasma kallikrein, substrate S-2302, sodium phosphate buffer pH 7.5.
On to `C[C@@H]1CCC[C@H](n2cnc(-c3cc(Cl)ccc3-n3cc(C#N)nn3)cc2=O)c2cc(ccn2)-c2ccc(C#N)cc2NC1=O` [Example 38, (10R,14S)-14-{4-[5-Chloro-2-(4-cyano-1H-1,2,3-triazol-1-yl)phenyl]-6-oxo-1,6-dihydropyrimidin-1-yl}-10-methyl-9-oxo-8,16-diazatricyclo[13.3.1.0^2,7]nonadeca-1(19),2(7),3,5,15,17-hexaene-5-carbonitrile trifluoroacetate], for which the affinity, expressed as Ki, was 19 nM. In other words, the double-digit nanomolar range.

Turning to `Cc1cn(-c2ccc(Cl)c(F)c2-c2cc(=O)n([C@H]3CCC[C@@H](C)C(=O)Nc4ccc(F)cc4-c4ccnc3c4)cn2)nn1` [Example 137, (10R,14S)-14-{4-[3-chloro-2-fluoro-6-(4-methyl-1H-1,2,3-triazol-1-yl)phenyl]-6-oxo-1,6-dihydropyrimidin-1-yl}-4-fluoro-10-methyl-8,16-diazatricyclo[13.3.1.0^2,7]nonadeca-1(19),2(7),3,5,15,17-hexaen-9-one], the Ki (in general, the dissociation constant of the complex between target and ligand, obtained from inhibition or displacement) came out at 12 nM.

In turn, `COC(=O)Nc1ccc2c(c1)CCCCCC[C@H](n1cnc(-c3cc(Cl)ccc3-n3cnnn3)cc1=O)c1nc-2c[nH]1` [Example 132, methyl N-[(14S)-14-{4-[5-chloro-2-(1H-1,2,3,4-tetrazol-1-yl)phenyl]-6-oxo-1,6-dihydropyrimidin-1-yl}-16,18-diazatricyclo[13.2.1.0^2,7]octadeca-1(17),2,4,6,15(18)-pentaen-5-yl]carbamate trifluoroacetate] yielded a Ki of 340 nM.

For `C[C@@H]1CCC[C@H](n2cnc(-c3cc(Cl)ccc3-n3cc(Cl)nn3)cc2=O)c2cc(ccn2)-c2ccc(OCC(=O)O)cc2NC1=O` [Example 99, 2-{[(10R,14S)-14-{4-[5-chloro-2-(4-chloro-1H-1,2,3-triazol-1-yl)phenyl]-6-oxo-1,6-dihydropyrimidin-1-yl}-10-methyl-9-oxo-8,16-diazatricyclo[13.3.1.0^2,7]nonadeca-1(19),2(7),3,5,15,17-hexaen-5-yl]oxy}acetic acid], the Ki amounted to 4900 nM. This Ki is about 14-fold higher than that of the compound before.

Take `COC(=O)Nc1ccc2c(c1)NC(=O)[C@H](C)CCC[C@H](n1cnc(-c3cc(Cl)ccc3F)cc1=O)c1cc-2ccn1` [Example 49, methyl N-[(10R,14S)-14-[4-(5-chloro-2-fluorophenyl)-6-oxo-1,6-dihydropyrimidin-1-yl]-10-methyl-9-oxo-8,16-diazatricyclo[13.3.1.0^2,7]nonadeca-1(19),2(7),3,5,15,17-hexaen-5-yl]carbamate trifluoroacetate]: the affinity corresponds to a Ki of 13 nM.

For the compound `C[C@@H]1CCC[C@H](n2cnc(-c3cc(Cl)ccc3-n3cc(Cl)nn3)cc2=O)c2cc(ccn2)-c2cc(C#N)ccc2NC1=O` [Example 114, (10R,14S)-14-{4-[5-chloro-2-(4-chloro-1H-1,2,3-triazol-1-yl)phenyl]-6-oxo-1,6-dihydropyrimidin-1-yl}-10-methyl-9-oxo-8,16-diazatricyclo[13.3.1.0^2,7]nonadeca-1(19),2(7),3,5,15,17-hexaene-4-carbonitrile trifluoroacetate], the Ki was 26 nM.

For the compound `C[C@@H]1CCC[C@H](n2cnc(-c3c(-n4cc(Cl)nn4)ccc(Cl)c3F)cc2=O)c2cc(ccn2)-c2cc(C#N)ccc2NC1=O` [Example 98, (10R,14S)-14-{4-[3-Chloro-6-(4-chloro-1H-1,2,3-triazol-1-yl)-2-fluorophenyl]-6-oxo-1,6-dihydropyrimidin-1-yl}-10-methyl-9-oxo-8,16-diazatricyclo[13.3.1.0^2,7]nonadeca-1(19),2(7),3,5,15,17-hexaene-4-carbonitrile trifluoroacetate], the Ki was 40 nM. Compared with the last compound, the Ki is about 1.5-fold higher.

`C[C@@H]1CCC[C@H](n2cnc(-c3cc(Cl)ccc3-n3cc(C(F)F)nn3)cc2=O)c2cc(ccn2)-c2ccccc2NC1=O` [Example 94, (10R,14S)-14-(4-{5-chloro-2-[4-(difluoromethyl)-1H-1,2,3-triazol-1-yl]phenyl}-6-oxo-1,6-dihydropyrimidin-1-yl)-10-methyl-8,16-diazatricyclo[13.3.1.0^2,7]nonadeca-1(19),2(7),3,5,15,17-hexaen-9-one]: the Ki came to 30 nM.

Compound `C[C@@H]1CCC[C@H](n2cnc(-c3cc(Cl)ccc3-n3cc(Cl)nn3)cc2=O)c2cc(ccn2)-c2c(Cl)cccc2NC1=O` [Example 104, (10R,14S)-3-chloro-14-{4-[5-chloro-2-(4-chloro-1H-1,2,3-triazol-1-yl)phenyl]-6-oxo-1,6-dihydropyrimidin-1-yl}-10-methyl-8,16-diazatricyclo [13.3.1.0^2,7]nonadeca-1(19),2(7),3,5,15,17-hexaen-9-one] showed a Ki of 190 nM.

Compound `C[C@@H]1CCC[C@H](n2cnc(-c3cc(Cl)ccc3OC(F)(F)F)cc2=O)c2cc(ccn2)-c2cc(F)ccc2NC1=O` [Example 146, (10R,14S)-14-{4-[5-chloro-2-(trifluoromethoxy)phenyl]-6-oxo-1,6-dihydropyrimidin-1-yl}-4-fluoro-10-methyl-8,16-diazatricyclo[13.3.1.0^2,7]nonadeca-1(19),2(7),3,5,15,17-hexaen-9-one trifluoroacetate] returned an inhibition constant Ki of 3800 nM. Compared with the last compound, the Ki is about 20-fold higher.

`C[C@@H]1CC(O)C[C@H](n2cnc(-c3c(-n4cc(Cl)nn4)ccc(Cl)c3F)cc2=O)c2cc(ccn2)-c2cc(F)ccc2NC1=O` (stereo partly drawn) [Example 40, (10R,14S)-14-{4-[3-chloro-6-(4-chloro-1H-1,2,3-triazol-1-yl)-2-fluorophenyl]-6-oxo-1,6-dihydropyrimidin-1-yl}-4-fluoro-12-hydroxy-10-methyl-8,16-diazatricyclo[13.3.1.0^2,7]nonadeca-1(19),2(7),3,5,15,17-hexaen-9-one trifluoroacetate]: the Ki was determined as 13 nM.

Consider `CCOc1cn(-c2ccc(Cl)cc2-c2cc(=O)n([C@H]3CCC[C@@H](C)C(=O)Nc4ccc(F)cc4-c4ccnc3c4)cn2)nn1` [Example 144, (10R,14S)-14-{4-[5-chloro-2-(4-ethoxy-1H-1,2,3-triazol-1-yl)phenyl]-6-oxo-1,6-dihydropyrimidin-1-yl}-4-fluoro-10-methyl-8,16-diazatricyclo[13.3.1.0^2,7]nonadeca-1(19),2(7),3,5,15,17-hexaen-9-one trifluoroacetate], for which the Ki was 210 nM.

As to `C[C@@H]1CCC[C@H](n2cnc(-c3c(-n4cc(Cl)nn4)ccc(Cl)c3F)cc2=O)c2cc(ccn2)-c2ccccc2NC1=O` [Example 58, (10R,14S)-14-{4-[3-chloro-6-(4-chloro-1H-1,2,3-triazol-1-yl)-2-fluorophenyl]-6-oxo-1,6-dihydropyrimidin-1-yl}-10-methyl-8,16-diazatricyclo [13.3.1.0^2,7]nonadeca-1(19),2,4,6,15,17-hexaen-9-one], the Ki was found to be 5 nM.

As to `C[C@@H]1CCC[C@H](n2cnc(-c3cc(Cl)ccc3-n3cc(C(F)(F)F)nn3)cc2=O)c2ccnc(c2)-c2ccc(C#N)cc2NC1=O` [Example 113, (10R,14S)-14-(4-{5-chloro-2-[4-(trifluoromethyl)-1H-1,2,3-triazol-1-yl]phenyl}-6-oxo-1,6-dihydropyrimidin-1-yl)-10-methyl-9-oxo-8,18-diazatricyclo [13.3.1.0^2,7]nonadeca-1(19),2(7),3,5,15,17-hexaene-5-carbonitrile], the Ki was determined as 15 nM.

Take `C[C@@H]1CCC[C@H](n2cnc(-c3cc(Cl)ccc3-n3cc(C(F)(F)F)nn3)cc2=O)c2cncc(c2)-c2cc(F)ccc2NC1=O` [Example 103, (10R,14S)-14-(4-{5-chloro-2-[4-(trifluoromethyl)-1H-1,2,3-triazol-1-yl]phenyl}-6-oxo-1,6-dihydropyrimidin-1-yl)-4-fluoro-10-methyl-8,17-diazatricyclo[13.3.1.0^2,7]nonadeca-1(19),2(7),3,5,15,17-hexaen-9-one]: the affinity corresponds to a Ki of 32 nM. Compared with the last compound, the Ki is about 2.1-fold higher.

The compound `C[C@@H]1CCC[C@H](n2cnc(-c3cc(Cl)ccc3-c3cnn(C)c3)cc2=O)c2cc(ccn2)-c2cc(F)ccc2NC1=O` [Example 66, (10R,14S)-14-{4-[5-chloro-2-(1-methyl-1H-pyrazol-4-yl)phenyl]-6-oxo-1,6-dihydropyrimidin-1-yl}-4-fluoro-10-methyl-8,16-diazatricyclo[13.3.1.0^2,7]nonadeca-1(19),2(7),3,5,15,17-hexaen-9-one] showed a Ki of 900 nM.

Consider `C[C@@H]1CCC[C@H](n2cnc(-c3cc(Cl)ccc3-n3cc(C(N)=NO)nn3)cc2=O)c2cc(ccn2)-c2cc(F)ccc2NC1=O` [Example 149, 1-(4-chloro-2-{1-[(10R,14S)-4-fluoro-10-methyl-9-oxo-8,16-diazatricyclo [13.3.1.0^2,7]nonadeca-1(19),2(7),3,5,15,17-hexaen-14-yl]-6-oxo-1,6-dihydropyrimidin-4-yl}phenyl)-N-hydroxy-1H-1,2,3-triazole-4-carboximidamide bis-trifluoroacetate], for which the affinity, expressed as Ki, was 38 nM.

`C#Cc1ccc2c(c1)NC(=O)[C@H](C)CCC[C@H](n1cnc(-c3cc(Cl)ccc3-n3cc(Cl)nn3)cc1=O)c1cc-2ccn1` [Example 91, (10R,14S)-14-{4-[5-chloro-2-(4-chloro-1H-1,2,3-triazol-1-yl)phenyl]-6-oxo-1,6-dihydropyrimidin-1-yl}-5-ethynyl-10-methyl-8,16-diazatricyclo[13.3.1.0^2,7]nonadeca-1(19),2(7),3,5,15,17-hexaen-9-one]: the affinity corresponds to a Ki of 660 nM.

`C[C@@H]1CCC[C@H](n2cnc(-c3cc(Cl)ccc3-n3cc(Cl)nn3)cc2=O)c2cc(ccn2)-c2ccc(Cl)cc2NC1=O` [Example 75, (10R,14S)-5-chloro-14-{4-[5-chloro-2-(4-chloro-1H-1,2,3-triazol-1-yl)phenyl]-6-oxo-1,6-dihydropyrimidin-1-yl}-10-methyl-8,16-diazatricyclo [13.3.1.0^2,7]nonadeca-1(19),2(7),3,5,15,17-hexaen-9-one] came in with a Ki of 100 nM.

`C[C@@H]1CCC[C@H](n2cnc(-c3cc(Cl)ccc3C(F)(F)F)cc2=O)c2cc(ccn2)-c2cc(F)ccc2NC1=O` [Example 141, (10R,14S)-14-{4-[5-chloro-2-(trifluoromethyl)phenyl]-6-oxo-1,6dihydropyrimidin-1-yl}-4-fluoro-10-methyl-8,16-diazatricyclo[13.3.1.0^2,7]nonadeca-1(19),2(7),3,5,15,17-hexaen-9-one trifluoroacetate] had a Ki of 580 nM.
